These results are taken from US20220386582A1, “METHOD AND DEVICE TO TRAP ACARIDS” (DOMOBIOS, priority 2015, published 2022).

The test system of one assay is Dermatophagoides farinae. The experiment in a line: Mini-mattress trap: attraction capabilities of attracting solutions sprayed on felt. The assay is classed as in vivo. The protocol:
(§1) Rearing: The species studied were Dermatophagoides pteronyssinus and Dermatophagoides farinae, house dust mite common in mattresses in Eurasia. Mites are reared in Petri dishes and fed with human skin flakes (skin and whiskers obtained by cleaning electric […]). All mites were reared together under defined conditions (20° C. and 75% relative humidity). The experiments took place in a room kept at 20° C. and 40% relative humidity. Aim of the experiments: The aim was to test the trap in condition similar to the conditions that will be met by the user of the trap. Materials and methods: The mattresses were built at a smaller scale (15× reduction) than usual mattresses. These mini-mattresses are made in polyurethane and covered by a cover in cotton. They were infested with mites since at least 3 months. The fabric was a felt of 20 mg/cm^2 and is a rectangle of 10 cm×20 cm. It was placed on the mini-mattress. Then the attracting solution was sprayed on the fabric with a spray bottle. The fabric was left in place on the mattress during one hour. During this time, the mites moved in the felt. It is very difficult to count directly the mites hidden in the mattress and in the fabric. Therefore, we used a Berlèse funnel which is a device that is usually used to separate insects from litter. Here, it was used to separate the mites from their mattress or from the fabric. The Berlèse funnel uses a light bulb to heat and dry the mattress, thus driving the mites downwards through a screen and into a collecting jar containing some food and some water. […] They are attracted by a source of moisture and the smell of food. The mattress or blanket were therefore placed in the funnel (FIG. 2). The mites went downwards in the direction of the jar, then in the jar. The harvest of the jar containing the mites took place after one day. Mites had then 24 hours to migrate to the jar collector. As a substantial proportion of the population is immobile (moulting mites), trapping is less efficient than it would be otherwise and estimate of population size that is trapped are likely to be biased. To avoid this bias and make a proper assessment of the populations in infested mattresses, mattresses were carefully brushed with a soft brush at the end of the manipulation meaning that immobile mites and eggs also fall into the funnel. Fabric was carefully brushed too. The Berlèze funnel was rinsed with ethanol. Thus, mites still on the inner wall of the funnel were driven by ethanol in the jar collector. At the end of the experiment, the jar contained: the food used as attracting to mites, a small amount of water also used for attracting, mites, and ethanol. The jar was emptied into a Petri dish and we counted mites under binocular. Counting of mites was made under binocular microscope (magnification 10×). The set-up is illuminated with a cold lamp (KL 1500 LCD, Schott ●). The felt was sprayed with different attracting compositions: a solution of lavandulol, a solution of Tween 60, a combination of lavandulol and Tween 60, a solution of citral, and the attracting solution commercialized under the brand name Acar'up were compared at various dilutions.

For assay [1], the system named is Dermatophagoides pteronyssinus. The description is as above. Type of assay: in vivo. How it is done: as §1
In assay [2] the test system is Dermatophagoides pteronyssinus. Briefly: Binary choice test in Petri dish, colored felt with attracting agent versus white felt with water. Type of assay: in vivo. How it is done: Aim of the experiments: All experiments are tests of binary choice aiming to determine the preference of mites and the place where they prefer to stay (at least for 30 min).
Rearing: The species studied was Dermatophagoides pteronyssinus, a dust mite common in mattresses in Eurasia. Mites are reared in Petri dishes and fed with human skin flakes (skin and whiskers obtained by cleaning electric shavers). All mites were reared together under defined conditions (20° C. and 75% relative humidity). The experiments took place in a room kept at 20° C. and 40% relative humidity.
Materials and methods: A group of mites (20<n<40) was placed in the center of a Petri dish (ø5.5 cm) around which two semi-circles of felt were placed (see FIG. 1). The pieces of felts were 70 mg/cm^2, their thickness was 2 mm. One felt is the control (control felt), for instance impregnated with water; the other felt is the felt with the tested item, for instance the felt that is impregnated with a chemical compound that is tested.
Mites move spontaneously towards one of the two felts.
Observations and counting of mites was made under binocular microscope (magnification 10×). The set-up is illuminated with a cold lamp (KL 1500 LCD, Schott ●), the lighting is symmetric and the light intensity was 50Klux. The experimental conditions were controlled in the room (T° C.: 19-22° C. and RH 40%). […]

A further assay relates to mites. Conditions: washing at low temperature, final concentration of 0.03% benzyl benzoate (Bischoff et al 1998); cited from earlier work.
Setting [3] is: Dilution 10^−6 (* mixture of a lavandulol solution at 10^−6 and a Tween 60 solution at 10^−6).

`CC(C)=CCCC(C)=CC=O` [Citral, 3,7-dimethyl-2,6-octadienal, reference compound]: the “attraction capabilities, percentage of mites” value in the assay with Dermatophagoides farinae (Dilution 10^−1) is 49%; in the assay with Dermatophagoides farinae (Dilution 10^−3) it was 36%; in the assay with Dermatophagoides farinae (setting [3]) it was 48%; in the assay on Dermatophagoides farinae (Dilution 10^−9) it was 43%; with Dermatophagoides farinae (Dilution Undiluted) it was 5%; in assay [1] (Dilution 10^−3), 23%. Besides, the “attraction capabilities, percentage of mites” value amounted to 76% in assay [1] (setting [3]), 56% in assay [1] (Dilution 10^−9) and 3% in assay [1] (Dilution Undiluted). Also, the “Mean (choice of mites for the tested felt)” value in assay [2] (blue felt + 1 μl attracting agent (dil 10^−6) versus white felt + 1 μl H2O, 18 trials) is on record as 0.84. For the same molecule, the “migration of the mites toward the blue felt” value in assay [2] (blue felt in combination with citral) turned out to be 84%.
On to `O=C(OCc1ccccc1)c1ccccc1` [benzyl benzoate], for which the “mite control in delicate garments” value with mites is “possible to achieve mite control”.
On to “Polyethylene glycol sorbitan monostearate [Tween 60]”, for which the “attraction capabilities, percentage of mites” value is 54% in the assay with Dermatophagoides farinae (Dilution 10^−3); 81% in the assay with Dermatophagoides farinae (setting [3]); 39% in the assay on Dermatophagoides farinae (Dilution 10^−9); 7% with Dermatophagoides farinae (Dilution Undiluted); 70% in assay [1] (Dilution 10^−3); 78% in assay [1] (setting [3]). Also, the figures for the “attraction capabilities, percentage of mites” value in assay [1] (Dilution 10^−9) and in assay [1] (Dilution Undiluted) were 57% and 14%, respectively.
